Reference: patent publication US20250145665A1, “MACROCYCLIC PEPTIDES USEFUL AS MODULATORS OF TNF ALPHA” (Bristol-Myers Squibb Company, priority 2023, published 2025)
Positions of bridges follow the written chain, without caps; N, C: chain ends. Non-standard residues stand in square brackets, D forms with d. Residues, ends and D or L forms follow the SMILES beside them. Bip(4'-COOH) = N[C@@H](Cc1ccc(-c2ccc(C(=O)O)cc2)cc1)C(=O)O; Phe(4-CF3) = N[C@@H](Cc1ccc(C(F)(F)F)cc1)C(=O)O; Ala(morpholin-4-yl) = N[C@@H](CN1CCOCC1)C(=O)O; Phe(3-CONH2) = NC(=O)c1cccc(C[C@H](N)C(=O)O)c1; Phe(4-CONH2) = NC(=O)c1ccc(C[C@H](N)C(=O)O)cc1; Phe(4-CH2NH2) = NCc1ccc(C[C@H](N)C(=O)O)cc1; Bip = N[C@@H](Cc1ccc(-c2ccccc2)cc1)C(=O)O; Morpholine(3S-CO) = O=C(O)[C@@H]1COCCN1; Phe(4-Me) = Cc1ccc(C[C@H](N)C(=O)O)cc1; Val(3-OH) = CC(C)(O)[C@H](N)C(=O)O; h4Pal = N[C@@H](CCc1ccncc1)C(=O)O; hPhe = N[C@@H](CCc1ccccc1)C(=O)O; 2Pal = N[C@@H](Cc1ccccn1)C(=O)O; Tic = O=C(O)[C@@H]1Cc2ccccc2CN1; Aze = O=C(O)[C@@H]1CCN1; Sar = CNCC(=O)O

Each compound was assayed against TNFα (Homo sapiens, UniProt P01375) (assay: TNF-Induced HEK-Blue Assay). Conditions: not given.
Format: cell-based

Chain of TNFα (P01375 77-233 limits assumed): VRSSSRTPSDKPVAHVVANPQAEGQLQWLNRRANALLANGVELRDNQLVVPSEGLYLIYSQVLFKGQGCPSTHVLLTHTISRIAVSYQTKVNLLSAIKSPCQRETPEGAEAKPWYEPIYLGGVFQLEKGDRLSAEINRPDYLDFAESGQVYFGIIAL

Compound | IC50 [nM]
CC(C)C[C@@H]1NC(=O)[C@H](Cc2ccc(O)cc2)NC(=O)[C@H](C(C)C)NC(=O)CN(C)C(=O)[C@H](C(C)C)NC(=O)[C@H](CCCNC(=N)N)NC(=O)[C@H](CC(=O)O)NC(=O)[C@@H]2CCCN2C(=O)CN(C)C(=O)[C@H](Cc2ccc(-c3ccccc3)cc2)NC(=O)[C@H](Cc2ccc(-c3ccccc3)cc2)NC(=O)[C@H](CC(N)=O)NC(=O)CSC[C@@H](C(=O)NCC(N)=O)NC1=O [Example 142] ({CH2CO}-N[Bip][Bip][Sar]PDRV[Sar]VYLCG-NH2; thioether N-13) | 200 to 2000

Same assay, conditions: HEK-Blue-CD40L cells, NF-kB-driven secreted alkaline phosphatase reporter; TNFα 0.5 ng/ml; 18 h; read-out: TNF induced HEK-Blue assay IC50 value

Compound | IC50 [nM]
CC(C)C[C@@H]1NC(=O)[C@H](Cc2ccc(O)cc2)NC(=O)[C@H](C(C)C)NC(=O)CN(C)C(=O)[C@H](C(C)C)NC(=O)[C@H](CCCNC(=N)N)NC(=O)[C@H](CC(=O)O)NC(=O)[C@@H]2CCCN2C(=O)CN(C)C(=O)[C@H](Cc2ccc(-c3ccccc3)cc2)NC(=O)[C@H](Cc2ccc(-c3ccccc3)cc2)NC(=O)[C@H](C(C)(C)O)NC(=O)CSC[C@@H](C(=O)NCC(N)=O)NC1=O [Example 141] ({CH2CO}-[Val(3-OH)][Bip][Bip][Sar]PDRV[Sar]VYLCG-NH2; thioether N-13) | 50 to 200
CC(C)C[C@@H]1NC(=O)[C@H](Cc2ccc(O)cc2)NC(=O)[C@H](C(C)C)NC(=O)[C@@H]2COCCN2C(=O)[C@H](C(C)C)NC(=O)[C@@H](CCCNC(=N)N)NC(=O)[C@H](CC(=O)O)NC(=O)[C@H](Cc2ccc(O)cc2)NC(=O)CN(C)C(=O)[C@H](Cc2ccc(-c3ccccc3)cc2)NC(=O)[C@H](Cc2ccc(-c3ccccc3)cc2)NC(=O)[C@H](CN2CCOCC2)NC(=O)CSC[C@@H](C(=O)NCC(N)=O)NC1=O [Example 143] ({CH2CO}-[Ala(morpholin-4-yl)][Bip][Bip][Sar]YD[dR]V[Morpholine(3S-CO)]VYLCG-NH2; thioether N-13) | < 50
CC(C)C[C@@H]1NC(=O)[C@H](Cc2ccc(O)cc2)NC(=O)[C@H](C(C)C)NC(=O)[C@@H]2CCCN2C(=O)[C@H](C(C)C)NC(=O)[C@@H](CCCNC(=N)N)NC(=O)[C@H](CC(=O)O)NC(=O)[C@H](Cc2ccccn2)NC(=O)CN(C)C(=O)[C@H](Cc2ccc(-c3ccccc3)cc2)NC(=O)[C@H](Cc2ccc(-c3ccccc3)cc2)NC(=O)[C@H](CN2CCOCC2)NC(=O)CSC[C@@H](C(=O)NCC(N)=O)NC1=O [Example 144] ({CH2CO}-[Ala(morpholin-4-yl)][Bip][Bip][Sar][2Pal]D[dR]VPVYLCG-NH2; thioether N-13) | < 50
CC(C)C[C@@H]1NC(=O)[C@H](Cc2ccc(O)cc2)NC(=O)[C@H](C(C)C)NC(=O)[C@@H]2CCN2C(=O)[C@H](CC(N)=O)NC(=O)[C@@H](CCCNC(=N)N)NC(=O)[C@H](CC(=O)O)NC(=O)[C@H](Cc2ccc(O)cc2)NC(=O)CN(C)C(=O)[C@H](Cc2ccc(-c3ccccc3)cc2)NC(=O)[C@H](Cc2ccc(-c3ccc(C(=O)O)cc3)cc2)NC(=O)[C@H](CN2CCOCC2)NC(=O)CSC[C@@H](C(=O)NCC(N)=O)NC1=O [Example 145] ({CH2CO}-[Ala(morpholin-4-yl)][Bip(4'-COOH)][Bip][Sar]YD[dR]N[Aze]VYLCG-NH2; thioether N-13) | < 50
CC(C)C[C@@H]1NC(=O)[C@H](Cc2ccc(O)cc2)NC(=O)[C@H](C(C)C)NC(=O)[C@@H]2Cc3ccccc3CN2C(=O)[C@H](CC(N)=O)NC(=O)[C@@H](CCCNC(=N)N)NC(=O)[C@H](CC(=O)O)NC(=O)[C@H](Cc2ccc(O)cc2)NC(=O)CN(C)C(=O)[C@H](Cc2ccc(-c3ccccc3)cc2)NC(=O)[C@H](Cc2ccc(-c3ccc(C(=O)O)cc3)cc2)NC(=O)[C@H](CN2CCOCC2)NC(=O)CSC[C@@H](C(=O)NCC(N)=O)NC1=O [Example 146] ({CH2CO}-[Ala(morpholin-4-yl)][Bip(4'-COOH)][Bip][Sar]YD[dR]N[Tic]VYLCG-NH2; thioether N-13) | < 50
CC(C)C[C@@H]1NC(=O)[C@H](Cc2ccc(O)cc2)NC(=O)[C@H](C(C)C)NC(=O)[C@@H]2CCN2C(=O)[C@H](C(C)C)NC(=O)[C@@H](CCCNC(=N)N)NC(=O)[C@H](CC(=O)O)NC(=O)[C@H](Cc2ccc(O)cc2)NC(=O)CN(C)C(=O)[C@H](Cc2ccc(-c3ccccc3)cc2)NC(=O)[C@H](Cc2ccc(-c3ccc(C(=O)O)cc3)cc2)NC(=O)[C@H](CN2CCOCC2)NC(=O)CSC[C@@H](C(=O)NCC(N)=O)NC1=O [Example 147] ({CH2CO}-[Ala(morpholin-4-yl)][Bip(4'-COOH)][Bip][Sar]YD[dR]V[Aze]VYLCG-NH2; thioether N-13) | < 50
CC(C)C[C@@H]1NC(=O)[C@H](Cc2ccc(O)cc2)NC(=O)[C@H](C(C)C)NC(=O)[C@@H]2Cc3ccccc3CN2C(=O)[C@H](C(C)C)NC(=O)[C@@H](CCCNC(=N)N)NC(=O)[C@H](CC(=O)O)NC(=O)[C@H](Cc2ccc(O)cc2)NC(=O)CN(C)C(=O)[C@H](Cc2ccc(-c3ccccc3)cc2)NC(=O)[C@H](Cc2ccc(-c3ccc(C(=O)O)cc3)cc2)NC(=O)[C@H](CN2CCOCC2)NC(=O)CSC[C@@H](C(=O)NCC(N)=O)NC1=O [Example 148] ({CH2CO}-[Ala(morpholin-4-yl)][Bip(4'-COOH)][Bip][Sar]YD[dR]V[Tic]VYLCG-NH2; thioether N-13) | < 50

More lines, now with the values ahead:

IC50 [nM] | Compound
50 to 200 | CC(C)C[C@@H]1NC(=O)[C@H](Cc2ccc(O)cc2)NC(=O)[C@H](CC(C)C)NC(=O)[C@@H]2CCCN2C(=O)[C@H](C(C)C)NC(=O)[C@@H](CCCNC(=N)N)NC(=O)[C@H](CC(=O)O)NC(=O)[C@H](Cc2ccc(O)cc2)NC(=O)CN(C)C(=O)[C@H](Cc2ccc(-c3ccccc3)cc2)NC(=O)[C@H](Cc2ccc(-c3ccccc3)cc2)NC(=O)[C@H](CN2CCOCC2)NC(=O)CSC[C@@H](C(=O)NCC(N)=O)NC1=O [Example 149] ({CH2CO}-[Ala(morpholin-4-yl)][Bip][Bip][Sar]YD[dR]VPLYLCG-NH2; thioether N-13)
50 to 200 | CC(C)C[C@@H]1NC(=O)[C@H](Cc2ccc(CN)cc2)NC(=O)[C@H](C(C)C)NC(=O)[C@@H]2CCCN2C(=O)[C@H](C(C)C)NC(=O)[C@@H](CCCNC(=N)N)NC(=O)[C@H](CC(=O)O)NC(=O)[C@H](Cc2ccc(O)cc2)NC(=O)CN(C)C(=O)[C@H](Cc2ccc(-c3ccccc3)cc2)NC(=O)[C@H](Cc2ccc(-c3ccccc3)cc2)NC(=O)[C@H](CN2CCOCC2)NC(=O)CSC[C@@H](C(=O)NCC(N)=O)NC1=O [Example 150] ({CH2CO}-[Ala(morpholin-4-yl)][Bip][Bip][Sar]YD[dR]VPV[Phe(4-CH2NH2)]LCG-NH2; thioether N-13)
50 to 200 | CC(C)C[C@@H]1NC(=O)[C@H](Cc2ccc(C(N)=O)cc2)NC(=O)[C@H](C(C)C)NC(=O)[C@@H]2CCCN2C(=O)[C@H](C(C)C)NC(=O)[C@@H](CCCNC(=N)N)NC(=O)[C@H](CC(=O)O)NC(=O)[C@H](Cc2ccc(O)cc2)NC(=O)CN(C)C(=O)[C@H](Cc2ccc(-c3ccccc3)cc2)NC(=O)[C@H](Cc2ccc(-c3ccccc3)cc2)NC(=O)[C@H](CN2CCOCC2)NC(=O)CSC[C@@H](C(=O)NCC(N)=O)NC1=O [Example 151] ({CH2CO}-[Ala(morpholin-4-yl)][Bip][Bip][Sar]YD[dR]VPV[Phe(4-CONH2)]LCG-NH2; thioether N-13)
50 to 200 | Cc1ccc(C[C@@H]2NC(=O)[C@H](C(C)C)NC(=O)[C@@H]3CCCN3C(=O)[C@H](C(C)C)NC(=O)[C@@H](CCCNC(=N)N)NC(=O)[C@H](CC(=O)O)NC(=O)[C@H](Cc3ccc(O)cc3)NC(=O)CN(C)C(=O)[C@H](Cc3ccc(-c4ccccc4)cc3)NC(=O)[C@H](Cc3ccc(-c4ccccc4)cc3)NC(=O)[C@H](CN3CCOCC3)NC(=O)CSC[C@@H](C(=O)NCC(N)=O)NC(=O)[C@H](CC(C)C)NC2=O)cc1 [Example 152] ({CH2CO}-[Ala(morpholin-4-yl)][Bip][Bip][Sar]YD[dR]VPV[Phe(4-Me)]LCG-NH2; thioether N-13)
50 to 200 | CC(C)C[C@@H]1NC(=O)[C@H](CCc2ccccc2)NC(=O)[C@H](C(C)C)NC(=O)[C@@H]2CCCN2C(=O)[C@H](C(C)C)NC(=O)[C@@H](CCCNC(=N)N)NC(=O)[C@H](CC(=O)O)NC(=O)[C@H](Cc2ccc(O)cc2)NC(=O)CN(C)C(=O)[C@H](Cc2ccc(-c3ccccc3)cc2)NC(=O)[C@H](Cc2ccc(-c3ccccc3)cc2)NC(=O)[C@H](CN2CCOCC2)NC(=O)CSC[C@@H](C(=O)NCC(N)=O)NC1=O [Example 154] ({CH2CO}-[Ala(morpholin-4-yl)][Bip][Bip][Sar]YD[dR]VPV[hPhe]LCG-NH2; thioether N-13)
< 50 | CC(C)C[C@@H]1NC(=O)[C@H](CCc2ccncc2)NC(=O)[C@H](C(C)C)NC(=O)[C@@H]2CCCN2C(=O)[C@H](C(C)C)NC(=O)[C@@H](CCCNC(=N)N)NC(=O)[C@H](CC(=O)O)NC(=O)[C@H](Cc2ccc(O)cc2)NC(=O)CN(C)C(=O)[C@H](Cc2ccc(-c3ccccc3)cc2)NC(=O)[C@H](Cc2ccc(-c3ccccc3)cc2)NC(=O)[C@H](CN2CCOCC2)NC(=O)CSC[C@@H](C(=O)NCC(N)=O)NC1=O [Example 155] ({CH2CO}-[Ala(morpholin-4-yl)][Bip][Bip][Sar]YD[dR]VPV[h4Pal]LCG-NH2; thioether N-13)
50 to 200 | CC(C)C[C@@H]1NC(=O)[C@H](Cc2cccc(C(N)=O)c2)NC(=O)[C@H](C(C)C)NC(=O)[C@@H]2CCCN2C(=O)[C@H](C(C)C)NC(=O)[C@@H](CCCNC(=N)N)NC(=O)[C@H](CC(=O)O)NC(=O)[C@H](Cc2ccc(O)cc2)NC(=O)CN(C)C(=O)[C@H](Cc2ccc(-c3ccccc3)cc2)NC(=O)[C@H](Cc2ccc(-c3ccccc3)cc2)NC(=O)[C@H](CN2CCOCC2)NC(=O)CSC[C@@H](C(=O)NCC(N)=O)NC1=O [Example 156] ({CH2CO}-[Ala(morpholin-4-yl)][Bip][Bip][Sar]YD[dR]VPV[Phe(3-CONH2)]LCG-NH2; thioether N-13)
200 to 2000 | CC(C)C[C@@H]1NC(=O)[C@H](Cc2ccc(C(F)(F)F)cc2)NC(=O)[C@H](C(C)C)NC(=O)[C@@H]2CCCN2C(=O)[C@H](C(C)C)NC(=O)[C@@H](CCCNC(=N)N)NC(=O)[C@H](CC(=O)O)NC(=O)[C@H](Cc2ccc(O)cc2)NC(=O)CN(C)C(=O)[C@H](Cc2ccc(-c3ccccc3)cc2)NC(=O)[C@H](Cc2ccc(-c3ccccc3)cc2)NC(=O)[C@H](CN2CCOCC2)NC(=O)CSC[C@@H](C(=O)NCC(N)=O)NC1=O [Example 157] ({CH2CO}-[Ala(morpholin-4-yl)][Bip][Bip][Sar]YD[dR]VPV[Phe(4-CF3)]LCG-NH2; thioether N-13)
